These results are taken from patent US20170247465A1, “COMBINATION THERAPY FOR TREATMENT OF CANCER” (OncoMed Pharmaceuticals, Inc., priority 2014, published 2017).

The subject of this experiment is OMP-OV38 tumors. As to the kind of experiment: Histology of treated OMP-OV38 tumors. It counts as in vivo, NOD/SCID mice. Particulars: paclitaxel alone; data not shown. The procedure:
The treated OMP-OV38 tumors were analyzed by histology.

On to `CC(=O)O[C@H]1C(=O)[C@@]2(C)[C@H]([C@H](OC(=O)c3ccccc3)[C@]3(O)C[C@H](OC(=O)[C@H](O)[C@@H](NC(=O)c4ccccc4)c4ccccc4)C(C)=C1C3(C)C)[C@]1(OC(C)=O)CO[C@@H]1C[C@@H]2O` [paclitaxel], for which the “histology of the tumors” value is on record as “did not show these effects”.
